Assays:
Type in all cases: in vivo
[1] = test system: Sprague-Dawley rats (rat model of ROP); assay: Flash electroretinograms in rat model of ROP (hyperoxia); conditions: sildenafil 50 mg/kg per os twice daily P15 to P21, P29, p<0.05
Description: Sprague-Dawley rats were exposed to hyperoxia (i.e., 80% oxygen) interrupted by three 0.5-hour periods of normoxia (i.e., 21% oxygen) per day or room air only (i.e., 21% oxygen) from post-natal day 4 (P4) to 14 (P14). Pups were then housed in room air. […] Flash electroretinograms were recorded at P29 to assess the retinal function. At P31, retinas were extracted, sectioned and stained with toluidine blue to measure the thicknesses of the different retinal layers.

[2] = test system: Long-Evans rat pups (neonatal HI); assay: Hippocampal injury and neuroinflammation after neonatal HI; conditions: P30
Description: Neonatal HI was induced in male Long-Evans rat pups at postnatal day 10 (P10) by left common carotid ligation followed by 2-hour exposure to 8% oxygen. Sham operated rat pups served as control. […] At P30, rats were sacrificed and their brains extracted. CA1, CA3 and dentate gyrus (DG) areas of the ipsilateral hippocampus were analyzed for microgliosis (Iba1) and astrogliosis (GFAP), neuronal number (NeuN), and vascular density (collagen IV).

[3] = test system: Long-Evans rat pups (term neonatal HIE model); assay: Endothelial cells count (lectin staining) at P30; conditions: HI, not significant
Description: Using the third slide prepared for each animal, an immunohistochemistry was used to assess the endothelial cells count. Sections were labeled with lectin (biotinylated isolectin B4) (Sigma-Aldrich: L2140, St-Louis, Mo., USA) (dilution 20 μg/mL in 0.1M tris-buffered saline [pH 7.4] and 0.5% Triton X-100, incubation time 2 hours at room temperature) (Springer M L et al., 2010). To detect lectin binding, the sections were incubated with streptavidin Alexa Fluor® 350 conjugate (Molecular Probes®, Life Technologies: S11249, Carlsbad, Calif., USA) dilution 1:300 in tris-buffered saline, incubation time 2 hours at room temperature (Ndode-Ekane X E et al., 2010). Then, these sections were rinsed with tris-buffered saline and cover slipped with Vectashield Mounting media containing 4,6-diamidino-2-phenylindole (DAPI) (Vector Laboratories: H1200, Burlingame, Calif., USA) to visualize cell nuclei (Ndode-Ekane X E et al., 2010; Hallene K L et al., 2006). The endothelial cells count was assessed as per previously described methods (Hallene K L et al., 2006, Iwai M et al., 2007; Noguchi T et al., 2008; Rigau V et al., 2007; Wintermark P et al., 2013). Cells co-labeled with lectin and DAPI were identified as endothelial cells (Springer M L et al., 2010; Hallene K L et al., 2006). To estimate the density of microvessels, single immunoreactive endothelial cells were counted as individual microvessels; endothelial staining in large vessels with tunica media were disregarded in the microvessel counts (Hallene K L et al., 2006, Iwai M et al., 2007; Noguchi T et al., 2008; Rigau V et al., 2007; Wintermark P et al., 2013; Shaikh H et al., 2015). […] One investigator took pictures of the respective fields of view at 10× magnification.

[4] = test system: Long-Evans rat pups (neonatal HI); assay: Retinal immunohistochemistry after neonatal HI; conditions: sildenafil 2, 10 or 50 mg/kg 7 days, P30
Description: Neonatal hypoxia-ischemia (HI) was induced in male Long-Evans rat pups at postnatal day 10 (P10) by left common carotid ligation followed by 2-hour exposure to 8% oxygen. […] At P30, rats were sacrificed and their eyes were extracted.

[5] = test system: Long-Evans rat pups (term neonatal HIE model); assay: Neurons count (NeuN) in cortex at P30; conditions: HI; for neuronal number near the infarct boundary zone, median (IQR): ipsilateral cortex
Description: Using the second slide prepared for each animal, an immunohistochemistry was performed to examine the number of mature neurons. Neurons were labeled with an anti-neuronal nuclei (NeuN) antibody (Millipore: MAB377, Billerica, Mass., USA) (dilution 1:500, incubation time 1 hour at room temperature) (Hendrickson M L et al., 2011). Sections then were incubated with the secondary antibody Alexa Fluor® 488 goat anti-rabbit IgG (Molecular Probes®, Life Technologies: A11034, Carlsbad, Calif., USA) (dilution 1:1000, incubation time 2 hours at 4° C.). These sections were rinsed with tris-buffered saline and cover slipped with Vectashield Mounting media containing 4,6-diamidino-2-phenylindole (DAPI) (Vector Laboratories: H1200, Burlingame, Calif., USA) to visualize cell nuclei. Cells co-labeled with NeuN and DAPI were identified as neurons. […] One investigator took pictures of the respective fields of view at 10× magnification.

[6] = test system: Long-Evans rat pups (term neonatal HIE model); assay: Microvessel density (collagen IV staining) at P30; conditions: HI, sildenafil 50 mg/kg, p<0.01
Description: In addition, using the fourth slide prepared for each animal, an immunohistochemistry with collagen IV staining also was used to assess microvessel density. Sections were labeled with an anti-collagen type IV antibody (EMD Millipore: AB769, Temecula, Calif., USA) (dilution 1:400, incubation time overnight at room temperature) (Tong X K et al., 2005). Then, these sections were incubated with the secondary antibody CyTM3-conjugated AffiniPure donkey anti-goat IgG (Cedarlane: 705-165-147, West Grove, Pa., USA) (dilution 1:400, incubation time 1 hour at room temperature). These sections were rinsed with tris-buffered saline and cover slipped with Vectashield Mounting media containing 4,6-diamidino-2-phenylindole (DAPI) (Vector Laboratories: H1200, Burlingame, Calif., USA) to visualize cell nuclei. To estimate microvessel density, single-layer immunoreactive blood vessels in all orientations were counted as individual microvessels. Collagen IV staining in large vessels with tunica media were disregarded in the microvessel counts (Hallene K L et al., 2006, Iwai M et al., 2007; Noguchi T et al., 2008; Rigau V et al., 2007; Wintermark P et al., 2013; Shaikh H et al., 2015). […] One investigator took pictures of the respective fields of view at 10× magnification.

With CCCc1nn(C)c2c(=O)[nH]c(-c3cc(S(=O)(=O)N4CCN(C)CC4)ccc3OCC)nc12 [sildenafil] the “scotopic and photopic b-wave amplitudes” value [1] was “improvement in scotopic and photopic b-wave amplitudes”, the “neuronal number in the dentate gyrus” value ([2]; HI, 50 mg/kg, vs sham vehicle) was “significantly increases” and the “number of activated microglia and reactive astrocytes in CA1 and dentate gyrus of the hippocampus” value ([2]; HI, higher doses (10 mg/kg and 50 mg/kg)) was “significantly reduced”. The “vascular density in hippocampus” value ([2]; treatment groups vs control group) was “no changes in vascular density”, the “endothelial cells number, median (IQR)” value ([3]; sildenafil 2 mg/kg) was 230 (158; 273) endothelial cells/mm^2 and the “endothelial cells number, median (IQR)” value ([3]; sildenafil 10 mg/kg (first mention, medium-dose)) was 196 (157; 225) endothelial cells/mm^2. For the same compound, the “endothelial cells number, median (IQR)” value ([3]; sildenafil 10 mg/kg as printed (second mention, third of low/medium/high)) was 193 (151; 217) endothelial cells/mm^2, the “neuroinflammation, number of astrocytes in retina” value [4] was “decreasing the number of astrocytes” and the “number of retinal ganglion cells and bipolar cells” value [4] was “restored the number of retinal ganglion cells and bipolar cells”. The “neuronal number near the infarct boundary zone, median (IQR)” value ([5]; high-dose sildenafil, p<0.001) was 1368 (1292; 1444) neurons/mm^2, the “neuronal number in corresponding region of contralateral cortex, median (IQR)” value (shortened to “neuronal number in corresponding region”) ([5]; high-dose sildenafil, p<0.001) was 1019 (948; 1106) neurons/mm^2 and the “neuronal number in corresponding region” value ([5]; low-dose sildenafil, not significant) was 808 (586; 963) neurons/mm^2. The “neuronal number in corresponding region” value ([5]; medium-dose sildenafil, p<0.001) was 999 (930; 1107) neurons/mm^2, the “neuronal number near the infarct boundary zone, median (IQR)” value ([5]; sildenafil 2 mg/kg, p<0.01) was 1118 (1069; 1238) neurons/mm^2 and the “neuronal number near the infarct boundary zone, median (IQR)” value ([5]; sildenafil 10 mg/kg, p<0.001) was 1222 (1170; 1338) neurons/mm^2. For the same compound, the “microvessel density near the infarct boundary zone, median (IQR)” value [6] was 211 (182; 221).

Reference: patent publication US10537575B2, “Phosphodiesterase inhibitors to repair brain and/or retinal injury in human newborns” (priority 2016, dated 2020)
